Test results published in patent publication US20250223559A1, “AXIOLOID: A STEM CELL-BASED MODEL OF HUMAN AXIAL DEVELOPMENT” (KYOTO UNIVERSITY, priority 2022, published 2025).

Test system: human Axioloids
Assay: Axioloid morphogenesis during Matrigel embedding phase (brightfield live imaging, length, segment and somite quantification)
Assay type: cell-based
Settings: added during MG embedding phase 72 h-120 h (RA 100 nM, ROL 10 μM, RAL 1 μM); 96 h and 120 h
Experimental: Human iPS cells were seeded on iMatrix-511 silk (Nippi) coated dishes at a density of 1.3×10^4 cells/well into 6 well plates 5 days prior to Axioloid induction and used at 60% confluency. All subsequent induction steps were performed in AK02N (Reprocell) medium without component C (AK02N-C). Initially, hiPSCs were pulsed with a strong mesoderm and primitive streak fate inducing combination of bFGF (20 ng ml-1) and WNT agonist CHIR99021 (5 μM) for 24 h. CHIR99021 concentration may need to be adjusted depending on the used iPSC line, but remains usually in the range of 3-5 μM. 24 h after the initial pulse, cells were dissociated with Accutase (Thermo Fisher Scientific) and cultured for 24 h in 96-well U-bottom low attachment plates (Sumilon) at 500 cells/well in 50 μl of AK02N—C based aggregation medium supplemented with CHIR99021 (5 μM), basic FGF (20 ng ml^1), TGFβ inhibitor SB431542 (10 μM) and ROCK inhibitor Y27632 (10 μM). 24 h after aggregation, 150 μl of AK02N-C medium was added into each well and exchanged again after 24 h with 150 μl of fresh AK02N-C medium. 48 h after aggregation Axioloids were transferred one-by-one into BSA-treated 96-well flat-bottom low attachment plates (Watson) and embedded into 80 μl of AK02N-C medium containing 10% growth factor-reduced Matrigel (Corning) and cultured further at 37° C. and 5% CO2 for 24 to 48 h. Depending on the experimental setup Retinoic Acid signaling molecules, i.e. Retinoic Acid (RA) (100 nM), Retinol (ROL) (10 μM) or all trans-Retinal (RAL) (1 μM) were added to the MG containing medium throughout the embedding phase. Small molecule inhibitors of FGF (PD173074 (250 nM)), WNT (XAV939 (2 μM)), RA (BMS493 (2.5 μM)) and Notch (DAPT (25 μM)) signaling were also added during the embedding phase and their effects on Axioloids assessed accordingly. For details of the used recombinant human proteins, small molecule agonists and inhibitors, please see Supplementary Table 1. […]
Periodicity of segmentation was quantified from brightfield live-cell imaging data obtained with an inverted Ti2 microscope system (Nikon) using PlanApo λ 10× objective. […]
Quantification of length or intensity based on imaging data was performed using Fiji^57. Rostrocaudal length of formed segments was quantified from a center plane in z-stack images of Phalloidin-stained Axioloids. The longitudinal axes of Axioloids were measured on bright field images using Segmented Line tool. For quantifying fluorescent intensity of HCR or IHC staining, first, maximum intensity z projection images were created from multi-channel z-stack confocal images, then intensity of each channel was quantified along the longitudinal axis of Axioloids by Segmented Line tool, with a line width which corresponds to approximately 80% of the lateral length of Axioloids. […]

CC1=C(/C=C/C(C)=C/C=C/C(C)=C/C=O)C(C)(C)CCC1 [RAL, all trans-Retinal]
stability and epithelialization of forming segments: dramatic improvement of the stability and epithelialization of forming segments
